Results as given in patent publication US8192962B2, “Processes for detecting toxic substances” (Daikin Industries, Ltd., priority 2001, dated 2012).

Test system: Mitochondria-located protein genes
Test: DNA chip mRNA expression in yeast, mitochondria-located protein genes (Table 2)
Type: cell-based, Saccharomyces cerevisiae S288C
Conditions: cells incubated two hours with the chemical substance
Procedure, shortened: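 Value is the scanned fluorescence intensity ratio of exposed versus chemical-free cells. Log-phase S288C yeast in YPD at 25° C. received one toxic substance for two hours, dosed to slow growth without killing; Cy3/Cy5-labeled cDNA from oligo-dT-purified mRNA was hybridized to a whole-genome chip at 65° C.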

CCCCC[C@H](O)CC(=O)CCc1ccc(O)c(OC)c1 [(13), gingerol]
The level of expressed mRNA in the presence of chemical substance/The level of expressed mRNA in the absence of chemical substance (yeast gene YAL039C): 1.6
The level of expressed mRNA in the presence of chemical substance/The level of expressed mRNA in the absence of chemical substance (yeast gene YAL044C): 1.1
The level of expressed mRNA in the presence of chemical substance/The level of expressed mRNA in the absence of chemical substance (yeast gene YBR291C): 1.0
The level of expressed mRNA in the presence of chemical substance/The level of expressed mRNA in the absence of chemical substance (yeast gene YCL009C): 1.6
The level of expressed mRNA in the presence of chemical substance/The level of expressed mRNA in the absence of chemical substance (yeast gene YDL067C): 0.6
The level of expressed mRNA in the presence of chemical substance/The level of expressed mRNA in the absence of chemical substance (yeast gene YDR268W): 1.0
The level of expressed mRNA in the presence of chemical substance/The level of expressed mRNA in the absence of chemical substance (yeast gene YDR377W): 0.7
The level of expressed mRNA in the presence of chemical substance/The level of expressed mRNA in the absence of chemical substance (yeast gene YDR529C): 0.7
The level of expressed mRNA in the presence of chemical substance/The level of expressed mRNA in the absence of chemical substance (yeast gene YGL068W): 1.0
The level of expressed mRNA in the presence of chemical substance/The level of expressed mRNA in the absence of chemical substance (yeast gene YGL187C): 0.7
The level of expressed mRNA in the presence of chemical substance/The level of expressed mRNA in the absence of chemical substance (yeast gene YGL191W): 1.1
The level of expressed mRNA in the presence of chemical substance/The level of expressed mRNA in the absence of chemical substance (yeast gene YGR029W): 1.0
The level of expressed mRNA in the presence of chemical substance/The level of expressed mRNA in the absence of chemical substance (yeast gene YGR112W): 1.1
The level of expressed mRNA in the presence of chemical substance/The level of expressed mRNA in the absence of chemical substance (yeast gene YGR220C): 1.1
The level of expressed mRNA in the presence of chemical substance/The level of expressed mRNA in the absence of chemical substance (yeast gene YHR037W): 1.1
The level of expressed mRNA in the presence of chemical substance/The level of expressed mRNA in the absence of chemical substance (yeast gene YIL070C): 0.7
The level of expressed mRNA in the presence of chemical substance/The level of expressed mRNA in the absence of chemical substance (yeast gene YIL094C): 0.7
The level of expressed mRNA in the presence of chemical substance/The level of expressed mRNA in the absence of chemical substance (yeast gene YJL096W): 0.7
The level of expressed mRNA in the presence of chemical substance/The level of expressed mRNA in the absence of chemical substance (yeast gene YKL150W): 1.8
The level of expressed mRNA in the presence of chemical substance/The level of expressed mRNA in the absence of chemical substance (yeast gene YKL194C): 1.1
The level of expressed mRNA in the presence of chemical substance/The level of expressed mRNA in the absence of chemical substance (yeast gene YLL001W): 1.7
The level of expressed mRNA in the presence of chemical substance/The level of expressed mRNA in the absence of chemical substance (yeast gene YMR023C): 1.1
The level of expressed mRNA in the presence of chemical substance/The level of expressed mRNA in the absence of chemical substance (yeast gene YMR203W): 1.1
The level of expressed mRNA in the presence of chemical substance/The level of expressed mRNA in the absence of chemical substance (yeast gene YMR267W): 0.7
The level of expressed mRNA in the presence of chemical substance/The level of expressed mRNA in the absence of chemical substance (yeast gene YNL284C): 1.0
The level of expressed mRNA in the presence of chemical substance/The level of expressed mRNA in the absence of chemical substance (yeast gene YOR187W): 0.7
The level of expressed mRNA in the presence of chemical substance/The level of expressed mRNA in the absence of chemical substance (yeast gene YOR316C): 1.6
The level of expressed mRNA in the presence of chemical substance/The level of expressed mRNA in the absence of chemical substance (yeast gene YPL215W): 0.7
The level of expressed mRNA in the presence of chemical substance/The level of expressed mRNA in the absence of chemical substance (yeast gene YPR134W): 1.1
